Data on 11 molecules can be found in ChEMBL document CHEMBL1201862, “PubChem BioAssay data set” (2004).

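Where inhibition never reached the appropriate level, the endpoint shown equals the highest concentration tested. Otherwise, values were interpolated linearly from a five-concentration, 48-hour dose response in 96-well plates. GI50 = concentration required for 50% inhibition of growth.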 Calls of active or inactive are those of the source. No stated cut-off is given here; in the data, active = GI50 up to about 1.1 µM and inactive = higher.

Some test systems named below: ACHN; DU-145; HL-60; HT-29; Hs-578T; IGROV-1; KM12; LOX IMVI; M14; MCF7; MDA-N; MOLT-4; OVCAR-3; SF-268; SF-295; SK-MEL-28; SW-620; RPMI-8226; SK-MEL-2; SNB-75.
Common to all, as to assay: NCI anticancer screen, dose series, 48 h

On to `C=C1OC(c2ccccc2NC)=NC12CCCCC2`, for which the GI50 with ACHN, in the experiment on DU-145, in the experiment with HL-60, in the experiment with HT-29, in the experiment with Hs-578T and in the experiment with IGROV-1 was > 100 µM (inactive) throughout. Moreover, the GI50 in the experiment on KM12, with LOX IMVI, in the experiment on M14, with MCF7, in the experiment with MDA-N and in the experiment on MOLT-4 was > 100 µM (inactive) each time. Moreover, the GI50 in the experiment with OVCAR-3, with SF-268, with SF-295, with SK-MEL-28 and with SW-620 was > 100 µM (inactive) throughout.

Consider `CCOC(=O)C#Cc1ccc(C#CC(=O)OCC)cc1`, for which the GI50 is 3.45 µM (inactive) with ACHN; 2.74 µM (inactive) with HL-60; 1.99 µM (inactive) in the experiment on HT-29; 3.15 µM (inactive) in the experiment on Hs-578T; 1.72 µM (inactive) with IGROV-1; 2.76 µM (inactive) with KM12. In addition, the GI50 was 3.03 µM (inactive) in the experiment on LOX IMVI; 2.12 µM (inactive) with M14; 1.54 µM (inactive) in the experiment on MCF7; 1.2 µM (inactive) in the experiment on MDA-N; 1.02 µM (active) in the experiment on MOLT-4; 2.77 µM (inactive) in the experiment on OVCAR-3. Moreover, the GI50 in the experiment with RPMI-8226 is 2.56 µM (inactive); in the experiment on SF-268, 3.88 µM (inactive); in the experiment on SF-295 it was 13.5 µM (inactive); with SK-MEL-28, 2.84 µM (inactive); with SK-MEL-2, 0.421 µM (active); with SNB-75, 0.0381 µM (active). In the experiment with SW-620, the GI50 is 3.15 µM (inactive).

With `C#CCCOC1(OC)N=NC(C)(C)O1` (centres undefined), the GI50 with ACHN, with DU-145, with HL-60, with HT-29, in the experiment on Hs-578T and with IGROV-1 was > 100 µM (inactive) each time. The GI50 in the experiment with KM12, with LOX IMVI, in the experiment on M14, with MDA-N, in the experiment with MOLT-4 and in the experiment with OVCAR-3 was > 100 µM (inactive) each time. The GI50 in the experiment with RPMI-8226, in the experiment with SF-268, in the experiment on SF-295, in the experiment with SK-MEL-28, in the experiment on SK-MEL-2 and in the experiment with SNB-75 was > 100 µM (inactive) in each case. The GI50 in the experiment with SW-620 is > 100 µM (inactive).

Consider `O=C(O)CSCC(=O)O`, for which the GI50 in the experiment with ACHN, in the experiment with DU-145, in the experiment on HL-60, with HT-29, in the experiment on Hs-578T and in the experiment on IGROV-1 was > 100 µM (inactive) in each case. Besides, the GI50 in the experiment on KM12, in the experiment with LOX IMVI, with M14, in the experiment with MDA-N, with MOLT-4 and in the experiment with OVCAR-3 was > 100 µM (inactive) in each case. Also, the GI50 in the experiment on SF-268, with SF-295, in the experiment on SK-MEL-28, with SK-MEL-2, in the experiment on SNB-75 and in the experiment with SW-620 was > 100 µM (inactive) each time.

As for `CC(=O)Nc1ccc2c(C(=O)O)c(C)c(O)nc2n1`, the GI50 in the experiment on ACHN, with DU-145, in the experiment with HL-60, in the experiment with HT-29, with Hs-578T and with IGROV-1 was > 100 µM (inactive) throughout. Moreover, the GI50 in the experiment on KM12 is > 100 µM (inactive); in the experiment on M14, > 100 µM (inactive); in the experiment with MCF7, > 100 µM (inactive); with MDA-N it was > 100 µM (inactive); in the experiment with MOLT-4, 51.3 µM (inactive); with RPMI-8226, > 100 µM (inactive). For the same molecule, the GI50 in the experiment with SF-268 is 57.7 µM (inactive); in the experiment with SF-295 it was > 100 µM (inactive); in the experiment with SK-MEL-2, > 100 µM (inactive); in the experiment with SW-620, > 100 µM (inactive).

Take `CC1=C(O)C(=O)C[C@]2(C)[C@H]3CC=C4[C@@H]5CC(C)(C)CC[C@@H]5C(=O)[C@H](O)[C@@]4(C)[C@]3(C)CC[C@@H]12`: the GI50 was 41.4 µM (inactive) with ACHN; > 50 µM (inactive) in the experiment on DU-145; > 50 µM (inactive) with HL-60; > 50 µM (inactive) in the experiment with HT-29; 25.1 µM (inactive) with Hs-578T; 21.8 µM (inactive) with IGROV-1. In addition, the GI50 in the experiment with KM12 is > 50 µM (inactive); in the experiment on M14 it was > 50 µM (inactive); in the experiment with MCF7 it was > 50 µM (inactive); in the experiment with MDA-N it was 47.3 µM (inactive); with MOLT-4 it was > 50 µM (inactive); in the experiment on OVCAR-3, > 50 µM (inactive). Further, the GI50 in the experiment with RPMI-8226 was 42.5 µM (inactive); with SF-268, > 50 µM (inactive); with SF-295, 37.8 µM (inactive); in the experiment with SK-MEL-28, > 50 µM (inactive); in the experiment on SK-MEL-2 it was 37.4 µM (inactive); in the experiment with SNB-75, 17.3 µM (inactive). Moreover, the GI50 with SW-620 is > 50 µM (inactive).

With `O=C(c1ccco1)N1CCCN(C(=O)c2ccco2)C1=S`, the GI50 with ACHN is > 100 µM (inactive); with DU-145, > 100 µM (inactive); with HL-60 it was > 100 µM (inactive); in the experiment with HT-29, > 100 µM (inactive); in the experiment with Hs-578T it was > 100 µM (inactive); with IGROV-1, 41.6 µM (inactive). Moreover, the GI50 in the experiment on KM12 was 82 µM (inactive); with LOX IMVI, > 100 µM (inactive); in the experiment on M14, > 100 µM (inactive); in the experiment with MCF7, 74.8 µM (inactive); in the experiment on MDA-N it was > 100 µM (inactive); in the experiment with MOLT-4 it was > 100 µM (inactive). Besides, the GI50 with OVCAR-3 was > 100 µM (inactive); in the experiment with RPMI-8226, > 100 µM (inactive); in the experiment on SF-268 it was > 100 µM (inactive); with SK-MEL-28, > 100 µM (inactive); in the experiment with SK-MEL-2, 46.5 µM (inactive); with SW-620 it was > 100 µM (inactive).

As to `CCOC(=O)C1=C(N2CCCC2)NC(=O)CC1=O`, the GI50 in the experiment on ACHN, with DU-145, with HL-60, with HT-29, in the experiment with Hs-578T and with IGROV-1 was > 100 µM (inactive) in each case. In addition, the GI50 with KM12, in the experiment on LOX IMVI, in the experiment with M14, in the experiment on MDA-N, in the experiment with MOLT-4 and in the experiment with OVCAR-3 was > 100 µM (inactive) in each case. Besides, the GI50 in the experiment on RPMI-8226, in the experiment with SF-268, with SF-295, with SK-MEL-28, in the experiment on SK-MEL-2 and in the experiment with SW-620 was > 100 µM (inactive) throughout.

On to `COc1cc(C2c3cc4c(cc3C3OC[C@@H]2C3CO)OCO4)cc(OC)c1OC` (some centres undefined), for which the GI50 is 80.4 µM (inactive) in the experiment on ACHN; 2.66 µM (inactive) with HL-60; 28.4 µM (inactive) in the experiment with HT-29; 34.4 µM (inactive) in the experiment with Hs-578T; 43.1 µM (inactive) with IGROV-1; 23 µM (inactive) with KM12. The GI50 in the experiment with LOX IMVI was 31.2 µM (inactive); in the experiment on M14, 31.3 µM (inactive); in the experiment on MCF7, 35.2 µM (inactive); in the experiment with MDA-N, 8.28 µM (inactive); in the experiment on MOLT-4 it was 33.1 µM (inactive); in the experiment on RPMI-8226, 38.6 µM (inactive). In addition, the GI50 with SF-268 is 31.3 µM (inactive); in the experiment with SF-295 it was 28.8 µM (inactive); in the experiment on SK-MEL-28 it was > 100 µM (inactive); in the experiment on SK-MEL-2, 40.2 µM (inactive); in the experiment with SNB-75 it was 25.6 µM (inactive); in the experiment with SW-620, 34 µM (inactive).

As for `COc1ccc(-c2coc3cc(O)ccc3c2=O)cc1` [FORMONONETIN], the GI50 with ACHN, in the experiment with DU-145, in the experiment with HL-60, with HT-29, in the experiment on Hs-578T and with IGROV-1 was > 100 µM (inactive) each time. Moreover, the GI50 with KM12, in the experiment with M14, in the experiment on MCF7, in the experiment on MDA-N, in the experiment on MOLT-4 and in the experiment on OVCAR-3 was > 100 µM (inactive) each time. Further, the GI50 with SF-268, with SF-295, in the experiment with SK-MEL-28, with SK-MEL-2, in the experiment on SNB-75 and with SW-620 was > 100 µM (inactive) each time.

In the case of `O=Cc1c2c(cc3c1CC1(C3)Cc3cc4c(c(C=O)c3C1)CCC4)CCC2`, the GI50 is 16.6 µM (inactive) with ACHN; 27.5 µM (inactive) in the experiment on HL-60; 31.3 µM (inactive) in the experiment with HT-29; 23.1 µM (inactive) in the experiment on Hs-578T; 17 µM (inactive) with IGROV-1; 21.8 µM (inactive) in the experiment on LOX IMVI. Moreover, the GI50 is 32.6 µM (inactive) in the experiment on M14; 36 µM (inactive) in the experiment with MCF7; 48.2 µM (inactive) with MDA-N; 11.3 µM (inactive) with MOLT-4; 24.1 µM (inactive) in the experiment on OVCAR-3; 43.6 µM (inactive) in the experiment on RPMI-8226. Further, the GI50 was 59.3 µM (inactive) in the experiment on SF-295 and 21.3 µM (inactive) in the experiment on SK-MEL-2.
